Assay results from PubChem BioAssay (NCI).
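Values below derive from 48-hour exposures of cells grown in 96-well plates, with endpoints linearly interpolated between the two concentrations bracketing the appropriate inhibition level. At the TGI there is no net growth.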

Tests used:
Assay in all cases: NCI tumour cell line growth inhibition, 48 h
[1] = system: 786-0 renal
[2] = system: A498 renal
[3] = system: A549 NSCLC
[4] = system: ACHN renal
[5] = system: BT-549 breast
[6] = system: CAKI-1 renal
[7] = system: CCRF-CEM leukemia
[8] = system: COLO 205 colon
[9] = system: DU-145 prostate
[10] = system: EKVX NSCLC
[11] = system: HCC-2998 colon
[12] = system: HCT-116 colon
[13] = system: HCT-15 colon
[14] = system: HL-60(TB) leukemia
[15] = system: HOP-62 NSCLC
[16] = system: HOP-92 NSCLC
[17] = system: HS 578T breast
[18] = system: HT29 colon
[19] = system: IGROV1 ovarian
[20] = system: K-562 leukemia
[21] = system: KM12 colon
[22] = system: LOX IMVI melanoma
[23] = system: M14 melanoma
[24] = system: MALME-3M melanoma
[25] = system: MCF7 breast
[26] = system: MDA-MB-231 breast
[27] = system: MDA-MB-435
[28] = system: MDA-N
[29] = system: MOLT-4 leukemia
[30] = system: NCI-H226 lung
[31] = system: NCI-H23 lung
[32] = system: NCI-H460 lung
[33] = system: NCI-H522 lung
[34] = system: NCI/ADR-RES ovarian
[35] = system: OVCAR-3 ovarian
[36] = system: OVCAR-4 ovarian
[37] = system: OVCAR-5 ovarian
[38] = system: OVCAR-8 ovarian
[39] = system: PC-3 prostate
[40] = system: RPMI-8226 leukemia
[41] = system: RXF 393 renal
[42] = system: SF-268 CNS
[43] = system: SF-295 CNS
[44] = system: SF-539 CNS
[45] = system: SK-MEL-2 melanoma
[46] = system: SK-MEL-28 melanoma
[47] = system: SK-MEL-5 melanoma
[48] = system: SK-OV-3 ovarian
[49] = system: SN12C renal
[50] = system: SNB-19 CNS
[51] = system: SNB-75 CNS
[52] = system: SR leukemia
[53] = system: SW-620 colon
[54] = system: T-47D breast
[55] = system: TK-10 renal
[56] = system: U251 CNS
[57] = system: UACC-257 melanoma
[58] = system: UACC-62 melanoma
[59] = system: UO-31 renal

**Q.** `Nc1nc(N)c(-c2cccc(C(F)(F)F)c2)c(Cc2cccc(C(F)(F)F)c2)n1` was tested. Which TGI [1] did it give?
**A.** 15.3 µM

**Q.** And the TGI [2]?
**A.** 15.9 µM

**Q.** And the TGI [3]?
**A.** 13.3 µM

**Q.** What about the TGI [4] of the same compound?
**A.** 13.5 µM

**Q.** What about the TGI [5] of the same compound?
**A.** 22.4 µM

**Q.** What about the TGI [6] of the same compound?
**A.** 21.9 µM

**Q.** And the TGI [7]?
**A.** 44.3 µM

**Q.** What about the TGI [8] of the same compound?
**A.** 19.6 µM

**Q.** And the TGI [9]?
**A.** 21.5 µM

**Q.** What about the TGI [10] of the same compound?
**A.** 21.1 µM

**Q.** And the TGI [11]?
**A.** 11.3 µM

**Q.** What about the TGI [12] of the same compound?
**A.** 12.2 µM

**Q.** What about the TGI [13] of the same compound?
**A.** 16.5 µM

**Q.** What about the TGI [14] of the same compound?
**A.** 17.7 µM

**Q.** What about the TGI [15] of the same compound?
**A.** 30.1 µM

**Q.** And the TGI [16]?
**A.** 25.8 µM

**Q.** What about the TGI [17] of the same compound?
**A.** 35 µM

**Q.** And the TGI [18]?
**A.** 10.9 µM

**Q.** What about the TGI [19] of the same compound?
**A.** 19.3 µM

**Q.** What about the TGI [20] of the same compound?
**A.** 17.7 µM

**Q.** What about the TGI [21] of the same compound?
**A.** 21.7 µM

**Q.** What about the TGI [22] of the same compound?
**A.** 17.9 µM

**Q.** What about the TGI [23] of the same compound?
**A.** 17.4 µM

**Q.** And the TGI [24]?
**A.** 25.7 µM

**Q.** And the TGI [25]?
**A.** 18.5 µM

**Q.** And the TGI [26]?
**A.** 26.2 µM

**Q.** And the TGI [27]?
**A.** 22.5 µM

**Q.** And the TGI [28]?
**A.** 17.9 µM

**Q.** What about the TGI [29] of the same compound?
**A.** 17.7 µM

**Q.** What about the TGI [30] of the same compound?
**A.** 30.1 µM

**Q.** And the TGI [31]?
**A.** 13 µM

**Q.** What about the TGI [32] of the same compound?
**A.** 13.5 µM

**Q.** And the TGI [33]?
**A.** 15.4 µM

**Q.** And the TGI [34]?
**A.** 23.1 µM

**Q.** What about the TGI [35] of the same compound?
**A.** 22.1 µM

**Q.** What about the TGI [36] of the same compound?
**A.** 31 µM

**Q.** What about the TGI [37] of the same compound?
**A.** 18.8 µM

**Q.** What about the TGI [38] of the same compound?
**A.** 24.6 µM

**Q.** What about the TGI [39] of the same compound?
**A.** 24.1 µM

**Q.** And the TGI [40]?
**A.** 21.6 µM

**Q.** And the TGI [41]?
**A.** 22.5 µM

**Q.** What about the TGI [42] of the same compound?
**A.** 20 µM

**Q.** And the TGI [43]?
**A.** 22.7 µM

**Q.** What about the TGI [44] of the same compound?
**A.** 16.6 µM

**Q.** What about the TGI [45] of the same compound?
**A.** 20.7 µM

**Q.** And the TGI [46]?
**A.** 24.8 µM

**Q.** And the TGI [47]?
**A.** 17.6 µM

**Q.** What about the TGI [48] of the same compound?
**A.** 28.1 µM

**Q.** And the TGI [49]?
**A.** 15.3 µM

**Q.** What about the TGI [50] of the same compound?
**A.** 19.2 µM

**Q.** And the TGI [51]?
**A.** 29 µM

**Q.** And the TGI [52]?
**A.** 17.5 µM

**Q.** And the TGI [53]?
**A.** 26.7 µM

**Q.** And the TGI [54]?
**A.** 32.4 µM

**Q.** And the TGI [55]?
**A.** 20.9 µM

**Q.** What about the TGI [56] of the same compound?
**A.** 29.6 µM

**Q.** What about the TGI [57] of the same compound?
**A.** 20.2 µM

**Q.** And the TGI [58]?
**A.** 14.8 µM

**Q.** And the TGI [59]?
**A.** 19.4 µM

**Q.** `CN(C)c1ccc(C2SCC(=O)N2c2nc3cc4sc(N5C(=O)CSC5c5ccc(N(C)C)cc5)nc4cc3s2)cc1` (stereo not drawn) was tested. Which TGI [1] did it give?
**A.** > 100 µM

**Q.** And the TGI [2]?
**A.** > 100 µM

**Q.** And the TGI [3]?
**A.** > 100 µM

**Q.** And the TGI [4]?
**A.** > 100 µM

**Q.** And the TGI [5]?
**A.** > 100 µM

**Q.** What about the TGI [6] of the same compound?
**A.** > 100 µM

**Q.** And the TGI [7]?
**A.** > 100 µM

**Q.** What about the TGI [8] of the same compound?
**A.** > 100 µM

**Q.** And the TGI [9]?
**A.** > 87.2 µM

**Q.** And the TGI [10]?
**A.** > 100 µM

**Q.** What about the TGI [11] of the same compound?
**A.** > 100 µM

**Q.** What about the TGI [12] of the same compound?
**A.** > 100 µM

**Q.** And the TGI [13]?
**A.** > 100 µM

**Q.** And the TGI [14]?
**A.** > 100 µM

**Q.** And the TGI [15]?
**A.** > 100 µM

**Q.** What about the TGI [16] of the same compound?
**A.** > 100 µM

**Q.** And the TGI [17]?
**A.** > 100 µM

**Q.** And the TGI [18]?
**A.** > 100 µM

**Q.** What about the TGI [19] of the same compound?
**A.** > 100 µM

**Q.** What about the TGI [20] of the same compound?
**A.** > 100 µM

**Q.** What about the TGI [21] of the same compound?
**A.** > 100 µM

**Q.** And the TGI [22]?
**A.** > 100 µM

**Q.** What about the TGI [23] of the same compound?
**A.** > 100 µM

**Q.** What about the TGI [24] of the same compound?
**A.** > 100 µM

**Q.** What about the TGI [25] of the same compound?
**A.** > 100 µM

**Q.** And the TGI [26]?
**A.** > 100 µM

**Q.** And the TGI [27]?
**A.** > 100 µM

**Q.** And the TGI [28]?
**A.** > 100 µM

**Q.** What about the TGI [29] of the same compound?
**A.** > 100 µM

**Q.** And the TGI [30]?
**A.** 73.1 µM

**Q.** And the TGI [31]?
**A.** > 100 µM

**Q.** What about the TGI [32] of the same compound?
**A.** > 28.3 µM

**Q.** What about the TGI [33] of the same compound?
**A.** > 100 µM

**Q.** What about the TGI [34] of the same compound?
**A.** > 76.3 µM

**Q.** And the TGI [35]?
**A.** > 100 µM

**Q.** And the TGI [36]?
**A.** > 100 µM

**Q.** And the TGI [37]?
**A.** > 100 µM

**Q.** And the TGI [38]?
**A.** > 100 µM

**Q.** What about the TGI [39] of the same compound?
**A.** > 100 µM

**Q.** And the TGI [40]?
**A.** > 100 µM

**Q.** And the TGI [41]?
**A.** > 100 µM

**Q.** And the TGI [42]?
**A.** > 100 µM

**Q.** What about the TGI [43] of the same compound?
**A.** > 100 µM

**Q.** What about the TGI [44] of the same compound?
**A.** > 100 µM

**Q.** What about the TGI [45] of the same compound?
**A.** > 100 µM

**Q.** And the TGI [46]?
**A.** > 100 µM

**Q.** And the TGI [47]?
**A.** > 100 µM

**Q.** And the TGI [48]?
**A.** > 100 µM

**Q.** What about the TGI [49] of the same compound?
**A.** > 100 µM

**Q.** What about the TGI [50] of the same compound?
**A.** > 100 µM

**Q.** And the TGI [51]?
**A.** > 100 µM

**Q.** What about the TGI [52] of the same compound?
**A.** > 100 µM

**Q.** And the TGI [53]?
**A.** > 100 µM

**Q.** And the TGI [54]?
**A.** > 100 µM

**Q.** And the TGI [55]?
**A.** > 100 µM

**Q.** What about the TGI [56] of the same compound?
**A.** > 100 µM

**Q.** What about the TGI [57] of the same compound?
**A.** > 70 µM

**Q.** And the TGI [58]?
**A.** > 100 µM

**Q.** And the TGI [59]?
**A.** > 100 µM
